One experiment addresses ErbB2 (Homo sapiens, UniProt P04626). The experiment in a line: ErbB2 phosphorylation in SKBR3 cells, dot blot (4G10). The class given is cell-based. Set-up: endogenous in cells; host or cells: SKBR3. The protocol: The ability of ZU and EB1 and their derivatives to inhibit ErbB2 activity in cellulo on a commonly used ErbB2-overexpressing breast cancer cell line SKBR3 was analyzed. SKBR3 were treated 24 h with increasing concentrations of the compounds (0.625-80 μM) and ErbB2 phosphorylation was addressed by dot blot analysis using an anti-phosphotyrosine antibody (clone 4G10). Quantifications show the result of two independent experiments.

Experiment [1] relates to EGFR/ErBB2 or ErbB3/ErbB2 heterodimers-dependent signalling pathways. Put plainly: Ligand-dependent ErbB2 activation (EGF or HRG) in HBMECs, western blot. The class given is cell-based. To be noted: pre-treatment 1 h or 24 h. The protocol:
In physiological conditions, ErbB2 activation occurs in heterodimer with the other ErbB family members, such as the EGFR in response to EGF stimulation or ErbB3 in response to heregulin (HRG) stimulation. We therefore addressed whether ZU, EB1 and their derivatives also affected the ligand-dependent physiological ErbB2 activation.
16 h-starved HBMECs cells were pre-treated or not for 1 h or 24 h with ZU, […] and their derivatives or AG1478 before EGF (50 ng/mL) or HRG1β (100 ng/mL) stimulation for 5 minutes. The activation of EGFR/ErBB2 or ErbB3/ErbB2 heterodimers-dependent signalling pathways was then analysed by western blot experiments using pAkt, Akt, pERK, ERK or 4G10 antibodies.

ErbB2, sequence (P04626 23-1255): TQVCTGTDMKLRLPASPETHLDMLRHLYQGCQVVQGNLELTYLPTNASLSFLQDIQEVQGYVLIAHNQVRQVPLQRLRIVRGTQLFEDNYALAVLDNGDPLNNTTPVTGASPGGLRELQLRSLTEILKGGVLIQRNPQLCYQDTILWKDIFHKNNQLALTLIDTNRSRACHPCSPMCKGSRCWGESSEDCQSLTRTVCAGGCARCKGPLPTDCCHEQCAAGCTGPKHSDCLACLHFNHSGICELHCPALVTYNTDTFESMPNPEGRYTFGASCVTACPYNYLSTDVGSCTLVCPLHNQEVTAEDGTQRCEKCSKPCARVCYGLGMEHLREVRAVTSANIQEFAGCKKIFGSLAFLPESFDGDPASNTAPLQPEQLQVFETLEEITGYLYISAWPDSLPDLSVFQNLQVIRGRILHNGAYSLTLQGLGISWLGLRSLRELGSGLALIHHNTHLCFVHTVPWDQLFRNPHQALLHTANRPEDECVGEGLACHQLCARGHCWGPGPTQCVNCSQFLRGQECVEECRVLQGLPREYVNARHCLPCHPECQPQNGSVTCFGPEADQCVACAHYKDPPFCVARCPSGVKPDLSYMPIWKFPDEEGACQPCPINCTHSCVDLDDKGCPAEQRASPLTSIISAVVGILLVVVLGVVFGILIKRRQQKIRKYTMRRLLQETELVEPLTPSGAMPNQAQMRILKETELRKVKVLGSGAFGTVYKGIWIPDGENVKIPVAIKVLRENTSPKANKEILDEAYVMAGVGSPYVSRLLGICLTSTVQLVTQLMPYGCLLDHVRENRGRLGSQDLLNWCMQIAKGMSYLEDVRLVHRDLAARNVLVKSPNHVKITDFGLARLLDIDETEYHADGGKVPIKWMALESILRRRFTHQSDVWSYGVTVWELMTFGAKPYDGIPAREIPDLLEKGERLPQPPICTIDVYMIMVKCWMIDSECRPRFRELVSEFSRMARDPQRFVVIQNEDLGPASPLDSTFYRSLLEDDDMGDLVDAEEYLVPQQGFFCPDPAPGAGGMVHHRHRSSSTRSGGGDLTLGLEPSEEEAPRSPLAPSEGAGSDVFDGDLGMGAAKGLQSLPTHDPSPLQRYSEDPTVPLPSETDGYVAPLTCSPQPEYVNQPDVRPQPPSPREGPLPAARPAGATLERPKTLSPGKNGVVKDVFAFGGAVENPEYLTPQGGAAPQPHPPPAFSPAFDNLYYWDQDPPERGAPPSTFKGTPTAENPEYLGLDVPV

In the case of `O=c1c2ccccc2[se]n1-c1ccccc1` [EBa, reference compound], on ErbB2 (SK-BR-3, SKBR3, 24 h, 0.625-80 μM, read-out: ErbB2 activation 24 h Max inhibition, %), the Emax was 15.6%. In addition, on ErbB2 (SKBR3, 24 h, read-out: ErbB2 activation 24 h EC50), the 50% effective concentration (EC50) was 40.7 µM. The “reduction of ErbB2 phosphorylation” value on ErbB2 (SKBR3, concentration of 10 μM) was found to be 15%. In experiment [1], the “ligand-dependent ErbB2 activation induced by EGF or HRG stimulation (in words)” value is “did not block”.
`COc1cc2ncnc(Nc3cccc(Cl)c3)c2cc1OC` [AG1478]: the “ligand-dependent ErbB2 activation induced by EGF or HRG stimulation (in words)” value in experiment [1] is listed as “strongly blocked”.

The record behind these values is patent publication US10766873B2, “Zuclopenthixol hydrochloride derivatives and Ebselen derivatives as ErbB2 inhibitors” (Centre National de la Recherche Scientifique (CNRS), priority 2016, dated 2020).
